One data set is described as follows: in vivo. To be noted: rat, po, 40 mg/kg. As to the method:
In accordance with Swedish legislations for preclinical in vivo studies in rodents and following evaluation and approval of the experimental procedures the local ethical committee (M388-12), following acclimatization to the housing conditions for a minimum of 7 days after arrival, male Wistar (Hannover) rats (Taconic, Denmark), average weight 300 g; average age 8-10 weeks, were treated with test items (see table 1); 12-16 h prior to dosing all food except for an amount equivalent to a half day consumption was removed. […] The rats were conscious during sample collection and the blood was taken from the sub-lingual vein. Blood samples were collected from each rat over a period of up to 24 h. At each time point two aliquots of 50 μL each was added to a vial containing 150 μL of sterile water. The samples were mixed immediately and stored in −18° C. until preparation for bioanalysis commenced. All formulations were prepared on the same day that dosing took place. The body weight of the rat was recorded before dosing. The weight of the syringe was recorded before and after administration to allow calculation of the actual amount of test sample delivered. Actual dose administered was used during the evaluation of the data.
Samples and standards were injected by a HTC PAL from CTC analytics into an LC system from Shimadzu consisting of a high pressure gradient system of two LC-10 AD pumps controlled by a SCL-10A controller from Shimadzu. The samples were separated using reverse-phase chromatography with gradient elution at a flow rate of 0.8 mL/min. Mobile phases were A:94.9/5/0.1 water/acetonitrile/formic acid and B:5/94.9/0.1 water/acetonitrile/formic acid. Gradient started at 0% B and increased linearly to 100% B in 4 minutes, 100% B was kept for 0.5 minutes and then the system returned to 0% B in 0.1 minutes. The system was equilibrated for 1.4 minutes until the total run time of 6 minutes. The eluent was analyzed by a Quattro Ultima from Micromass equipped with an electrospray ion source. Data was collected and calibrations were calculated by MassLynx 4.0 software. […] The eluent was ionized by negative ion electrospray and the mrm transition from 397 to 197 m/z was monitored.
The diluted blood sample (50 μL blood, 150 μL water) was thawed and mixed. 400 μL of acetonitrile, to precipitate the protein was added and mixed again. The sample was centrifuged at 5000 g for 5 minutes. 100 μL of the supernatant was transferred to a 300 μL glass vial and 100 μL of water was added to reduce the acetonitrile concentration.
The concentration of the standard curve was in the range from 5 nM to 15625 nM. Samples with analyte concentrations above the upper limit of quantification were diluted with matrix to reach within the assay range. A non-compartmental analysis (NCA) was performed using the Phoenix WinNonLin analysis tool.

The conditions of data set [1]: ambient temperature; cited from earlier work.
For data set [2] the following is noted: cited from earlier work; for time to steady state levels: sulfasalazine therapy.
The conditions of data set [3]: RA, 24 weeks, cited from earlier work.
A short description of data set [4]: appearance of test formulations / solubility over time in PBC buffer (pH 7.4). It counts as physicochemical. To be noted: 0.5% CMC in phosphate buffer (pH 7.4).
A short description of data set [5]: solubility in de-ionized water at rt after 24 h. Particulars: thermodynamic from solid.
Procedure: The produced examples were characterized regarding identity, crystal modification, thermal properties, melting point, solubility in water, purity, and hygroscopicity using the following methods:
The flow rate was 1.0 mL/min, injection volume 5 μL and detection wavelengths 358 nm (for assay) and 260 nm (for chromatographic purity). Quantitation was performed using external standard methodology. The assay method has been validated with respect to selectivity, repeatability and linearity.

SMILES strings stand for the structures. Like-named read-outs stand apart in the source and are kept apart here. Where only a bound is given, the exact number is not on record here.

For orientation: Tmax means the time from dosing to the highest level. Regarding `O=C(O)c1cc(/N=N/c2ccc(S(=O)(=O)Nc3ccccn3)cc2)ccc1O` [Sulfasalazine, 2-hydroxy-5-[2-[4-[(2-pyridinylamino)sulfonyl]phenyl]diazenyl]-benzoic acid], in the data set “in vivo” (male, Wistar (Hannover)), the Tmax turned out to be 0.25 h and the “Tmax for SP” value was determined as 4 h. For the same compound, the water solubility entry in data set [1] was “less than 0.05 mg/mL”. Further, the “time to steady state levels of sulfasalazine” value in data set [2] (multiple dosing) was at most 24 h. Besides, the overall clinical status result in data set [3] (fast acetylators, 3 g/day) is “marked improvement”. Further, the overall clinical status entry in data set [3] (slow acetylators, half of the SSZ dose (1.5 g/d)) is on record as “remained unchanged”.

What is called solubility is the dissolved amount per volume that the medium holds. A high value points to a readily soluble substance. Turning to `O=C(OCC(=O)N1CCOCC1)c1cc(/N=N/c2ccc(S(=O)(=O)Nc3ccccn3)cc2)ccc1O` [Compound 1a, 2-morpholino-2-oxoethyl-2-hydroxy-5-((4-(N-(pyridine-2-yl)sulfamoyl)phenyl)diazenyl) benzoate], in data set [4], the “Appearance of test formulations t = 0 h” value is on record as “clear solution” and the “Appearance of test formulations t = 4 h” value is “clear solution”. This compound gave a solubility at 24 h in data set [5] above 5000 µg/mL.

On to `O=C(COC(=O)c1cc(N=Nc2ccc(S(=O)(=O)Nc3ccccn3)cc2)ccc1O)NCC1CC1` [Compound 2f, 2-((cyclopropylmethyl)amino)-2-oxoethyl-2-hydroxy-5-((4-(N-(pyridine-2-yl)sulfamoyl)phenyl)diazenyl) benzoate], for which, in data set [4], the “Appearance of test formulations t = 0 h” value is “clear solution” and the “Appearance of test formulations t = 4 h” value is on record as “milky”. For the same compound, in the data set “in vivo”, the “Ratio SP to SSZ for AUC0-4 h (h*nmol/L)” value is listed as 6:1 and the “Ratio SP to SSZ for Cmax (nmol/L)” value is listed as 2:1.

Take `CC(=O)Nc1ccc(S(=O)(=O)Nc2ccccn2)cc1` [acetylated sulfapyridine]: the “time to steady state levels” value in data set [2] is reported as 72 h.

In the case of `Nc1ccc(S(=O)(=O)Nc2ccccn2)cc1` [sulfapyridine], in data set [2] (fast acetylators), the elimination half-life is reported as 5.5 h and the total plasma clearance was 135.3 mL/min. In data set [2] (following oral administration of sulfasalazine), the “time after which metabolite can be detected in the plasma” value was “about 10 hours”. The plasma protein binding entry in data set [2] (no difference between fast and slow acetylators) was “ca. 50 °”. Also, in data set [2] (slow acetylators), the elimination half-life is given as 15.3 h and the total plasma clearance is given as 36.9 mL/min. In addition, the “time to steady state levels” value in data set [2] was 72 h.

Consider `COCCNC(=O)COC(=O)c1cc(N=Nc2ccc(S(=O)(=O)Nc3ccccn3)cc2)ccc1O` [Compound 2h, 2-(2-methoxylethyl)amino)-2-oxoethyl-2-hydroxy-5-((4-(N-(pyridine-2-yl)sulfamoyl)phenyl)diazenyl) benzoate], for which, in data set [4], the “Appearance of test formulations t = 0 h” value was “clear solution” and the “Appearance of test formulations t = 4 h” value is recorded as “clear solution”. Also, in the data set “in vivo”, the “Ratio SP to SSZ for AUC0-4 h (h*nmol/L)” value is 8:1 and the “Ratio SP to SSZ for Cmax (nmol/L)” value is on record as 6:1.

Regarding `CCN(C)C(=O)COC(=O)c1cc(/N=N/c2ccc(S(=O)(=O)Nc3ccccn3)cc2)ccc1O` [Compound 4a, 2-(ethyl(methyl)amino)-2-oxoethyl-2-hydroxy-5-((4-(N-(pyridine-2-yl)sulfamoyl)phenyl)diazenyl) benzoate], in data set [4], the “Appearance of test formulations t = 0 h” value is listed as “clear solution” and the “Appearance of test formulations t = 4 h” value is reported as “clear solution”. In data set [5], the solubility at 24 h is above 1000 µg/mL.

For `CC(C)NC(=O)COC(=O)c1cc(N=Nc2ccc(S(=O)(=O)Nc3ccccn3)cc2)ccc1O` [Compound 2d, 2-(isopropylamino)-2-oxoethyl-2-hydroxy-5-((4-(N-(pyridine-2-yl)sulfamoyl)phenyl)diazenyl) benzoate], in data set [4], the “Appearance of test formulations t = 0 h” value is “clear solution” and the “Appearance of test formulations t = 4 h” value is given as “clear solution”. In “in vivo”, the “Ratio SP to SSZ for AUC0-4 h (h*nmol/L)” value is recorded as 2:1 and the “Ratio SP to SSZ for Cmax (nmol/L)” value is 2:1.

As to `CN(C)C(=O)COC(=O)c1cc(/N=N/c2ccc(S(=O)(=O)Nc3ccccn3)cc2)ccc1O` [Compound 3a, 2-(dimethylamino)-2-oxoethyl-2-hydroxy-5-((4-(N-(pyridine-2-yl)sulfamoyl)phenyl)diazenyl) benzoate], in data set [4], the “Appearance of test formulations t = 0 h” value is listed as “clear solution” and the “Appearance of test formulations t = 4 h” value is given as “milky”. This compound also had a solubility at 24 h in data set [5] above 500 µg/mL.

For `CNC(=O)COC(=O)c1cc(/N=N/c2ccc(S(=O)(=O)Nc3ccccn3)cc2)ccc1O` [Compound 2a, 2-(methylamino)-2-oxoethyl-2-hydroxy-5-((4-(N-(pyridine-2-yl)sulfamoyl)phenyl)diazenyl) benzoate], in data set [4], the “Appearance of test formulations t = 0 h” value was “clear solution” and the “Appearance of test formulations t = 4 h” value was “clear solution”. For the same compound, the solubility at 24 h in data set [5] is above 5000 µg/mL.

Regarding `CCN(CC)C(=O)COC(=O)c1cc(N=Nc2ccc(S(=O)(=O)Nc3ccccn3)cc2)ccc1O` [Compound 3b, 2-(diethylamino)-2-oxoethyl-2-hydroxy-5-((4-(N-(pyridine-2-yl)sulfamoyl)phenyl)diazenyl) benzoate], in data set [4], the “Appearance of test formulations t = 0 h” value is recorded as “clear solution” and the “Appearance of test formulations t = 4 h” value is “clear solution”. In “in vivo”, the “Ratio SP to SSZ for AUC0-4 h (h*nmol/L)” value is reported as 8:1 and the “Ratio SP to SSZ for Cmax (nmol/L)” value is 5:1.

The values above are taken from patent US10703723B2 (Truly Translational Sweden AB, priority 2017, dated 2020).
